The nature of the assay: Displacement of thioflavin-T from amyloid beta (1 to 40) aggregates by thioflavin-T fluorescent dye assay.

We go through 45 compounds from ChEMBL document CHEMBL1944619, “QSAR studies for prediction of cross-β sheet aggregate binding affinity and selectivity” (Bioorg Med Chem, 2012).

As to `Cc1ccc2c(c1)sc(/C=C/c1ccc(N(C)C)cc1)[n+]2C`, the IC50 amounted to 180 nM. Compound `CN(C)c1ccc(/C=C/c2sc3ccccc3[n+]2Cc2cccc(Oc3ccccc3)c2)cc1` returned a half-inhibitory concentration (IC50) of 120 nM. For the compound `CN(C)c1ccc(/C=C/c2nc3cc(Cl)ccc3s2)cc1`, the IC50 was above 100000 nM. With `CN(C)c1ccc(/C=C/c2sc3ccccc3[n+]2Cc2ccccc2-c2ccccc2)cc1`, the IC50 stood at 100 nM. To `CN(C)c1ccc(/C=C/c2sc3ccccc3[n+]2C)cc1` belongs 1000 nM; to `CN(C)c1ccc(/C=C/c2sc3cc(Cc4ccccc4)c(Cc4ccccc4)cc3[n+]2C)cc1`, 120 nM; to `CN(C)c1ccc(/C=C/c2sc3ccc(F)cc3[n+]2C)cc1`, 1000 nM. As for `CCCCCCC[n+]1c(/C=C/c2ccc(N(C)C)cc2)sc2cc(OC)ccc21`, the IC50 came out at 140 nM. This IC50 is about 7.1-fold lower than that of the compound before.

For the compound `CCCCCCC[n+]1c(/C=C/c2ccc(N(C)C)c3ccccc23)sc2ccccc21`, the IC50 stood at 160 nM. Compound `CN(C)c1ccc(/C=C/c2sc3ccccc3[n+]2CCCC(c2ccccc2)c2ccccc2)cc1` registered an IC50 of 460 nM. The same measure for `Nc1ccc(/N=N/c2nc3ccccc3s2)c2ccccc12`: 120 nM; for `CN(C)c1ccc(/C=C/c2sc3ccccc3[n+]2CCCC2CCCCC2)cc1`: 120 nM. To `CN(C)c1ccc(/C=C/c2sc3ccccc3[n+]2Cc2ccccc2)cc1` belongs 110 nM. `CN(C)c1ccc(/C=C/c2sc3ccccc3[n+]2CCCc2ccccc2)cc1` showed an IC50 of 200 nM. Consider `CN(C)c1ccc(/C=C/c2sc3ccccc3[n+]2CCCCCOc2ccccc2)cc1`, for which the half-inhibitory concentration (IC50) is 170 nM.

`CN(C)c1ccc(/C=C/c2sc3ccccc3[n+]2Cc2ccc3ccccc3c2)cc1`: the IC50 came to 120 nM.

Consider `CN(C)c1ccc(/C=C/c2sc3cc([N+](=O)[O-])ccc3[n+]2C)cc1`, for which the IC50 was found to be 1000 nM.

With `COc1ccc2c(c1)sc(/C=C/c1ccc(N(C)C)cc1)[n+]2C`, the half-maximal inhibitory concentration (IC50) is 300 nM. `CN(C)c1ccc(/C=C/c2sc3ccccc3[n+]2CCCCCc2ccccc2)cc1` displayed a half-maximal inhibitory concentration (IC50) of 170 nM. To `COc1ccc2nc(/N=N/c3ccc(N(C)C)cc3)sc2c1` belongs 3200 nM. Compound `CN(C)c1ccc(/C=C/c2nc3ccccc3s2)cc1` registered a 50% inhibitory concentration (IC50) above 100000 nM. To `CCCCCCC[n+]1c(/C=C/c2ccc(N(CCCC)CCCC)cc2)sc2ccccc21` belongs 600 nM; to `CN(C)c1ccc(/N=N/c2sc3ccccc3[n+]2C)cc1`, 1300 nM; to `Cc1ccc2sc(/C=C/c3ccc(N(C)C)cc3)[n+](C)c2c1`, 400 nM. The same measure for `CN(C)c1ccc(/C=C/c2nc3ccc(N(C)C)cc3s2)cc1`: above 100000 nM. Compound `CN(C)c1ccc(/C=C/c2sc3ccc(F)cc3[n+]2Cc2ccccc2)cc1` had an IC50 of 170 nM. To `CN(C)c1ccc(/C=C/c2sc3ccc(Cc4ccccc4)c(Cc4ccccc4)c3[n+]2C)cc1` belongs 210 nM; to `CN(C)c1ccc(/C=C/c2sc3ccccc3[n+]2CCCCOc2ccccc2)cc1`, 170 nM. To `CCCC[n+]1c(/C=C/c2ccc(N(C)C)cc2)sc2ccccc21` belongs 160 nM; to `CN(C)c1ccc(/C=C/c2sc3ccccc3[n+]2Cc2ccc(F)cc2)cc1`, 120 nM; to `COc1ccc2c(c1)sc(/N=N/c1ccc(N(C)C)cc1)[n+]2C`, 410 nM. `CN(C)c1ccc(/C=C/c2sc3ccccc3[n+]2Cc2ccc(-c3ccccc3)cc2)cc1` gave an IC50 of 240 nM. The same measure for `CCCCCCC[n+]1c(/C=C/c2ccc(-n3cccc3)cc2)sc2ccccc21`: 160 nM; for `CN(C)c1ccc(/C=C/c2sc3c(Cc4ccccc4)c(Cc4ccccc4)ccc3[n+]2C)cc1`: 210 nM; for `CN(C)c1ccc(/N=N/c2nc3ccccc3s2)cc1`: 22000 nM. To `CN(C)c1ccc(/C=C/c2sc3ccc(Cl)cc3[n+]2C)cc1` belongs 430 nM. With `CCCCCCC[n+]1c(/C=C/c2ccc(N(C)C)cc2)sc2ccccc21`, the IC50 was found to be 93 nM. The compound `CCCCCCC[n+]1c(/C=C/c2ccc(N(CC)CC)cc2)sc2ccccc21` registered an IC50 of 140 nM.

The compound `COc1ccc2nc(/N=N/c3ccc(N(C)C)c4ccccc34)sc2c1` gave an IC50 of 2500 nM. This IC50 lies about 18-fold higher than the previous one. In turn, `CN(C)c1ccc(/C=C/c2sc3ccccc3[n+]2Cc2cccc(OC(=O)c3ccccc3)c2)cc1` showed an IC50 of 230 nM. Compared with the last compound, the IC50 is about 11-fold lower.

With `CN(C)c1ccc(/C=C/c2sc3ccccc3[n+]2CCCOCc2ccccc2)cc1`, the IC50 worked out at 140 nM. This IC50 is about 1.6-fold lower than that of the compound before. For the compound `Cc1ccc2c(c1)sc(/C=C/c1ccc(N(C)C)cc1)[n+]2Cc1ccccc1`, the 50% inhibitory concentration (IC50) is 130 nM. The IC50 values of the last two compounds are within 1.5-fold of each other. On to `CN(C)c1ccc(/C=C/c2sc3ccccc3[n+]2C/C=C/c2ccccc2)cc1`, for which the 50% inhibitory concentration (IC50) amounted to 100 nM. As to `COc1ccc2c(c1)sc(/C=C/c1ccc(N(C)C)c3ccccc13)[n+]2C`, the IC50 amounted to 430 nM. Compared with the last compound, the IC50 is about 4.3-fold higher. The same measure for `CC[n+]1c(/C=C/c2ccc(N(C)C)cc2)sc2ccccc21`: 400 nM.

Broadly, the IC50 is the point on the concentration scale where inhibition reaches its midpoint. Low values mean higher potency, high ones lower potency.
